In US7163946B2 (Ligand Pharmaceuticals Incorporated, priority 2002, dated 2007):
Read-outs that look alike come from different tables or passages of the source.

Columns and labels:
hPR [1] = molecular target: T1, hPR (Homo sapiens, UniProt P06401); test: hPR cotransfection assay in CV-1 cells, agonist mode; format: cell-based; conditions: for Emax: CV-1, CV-1 cells, relative to maximal response of progesterone as 100%, read-out: hPR Agonist CV-1 Cells Eff. (%)
T1 sequence (P06401 1-933): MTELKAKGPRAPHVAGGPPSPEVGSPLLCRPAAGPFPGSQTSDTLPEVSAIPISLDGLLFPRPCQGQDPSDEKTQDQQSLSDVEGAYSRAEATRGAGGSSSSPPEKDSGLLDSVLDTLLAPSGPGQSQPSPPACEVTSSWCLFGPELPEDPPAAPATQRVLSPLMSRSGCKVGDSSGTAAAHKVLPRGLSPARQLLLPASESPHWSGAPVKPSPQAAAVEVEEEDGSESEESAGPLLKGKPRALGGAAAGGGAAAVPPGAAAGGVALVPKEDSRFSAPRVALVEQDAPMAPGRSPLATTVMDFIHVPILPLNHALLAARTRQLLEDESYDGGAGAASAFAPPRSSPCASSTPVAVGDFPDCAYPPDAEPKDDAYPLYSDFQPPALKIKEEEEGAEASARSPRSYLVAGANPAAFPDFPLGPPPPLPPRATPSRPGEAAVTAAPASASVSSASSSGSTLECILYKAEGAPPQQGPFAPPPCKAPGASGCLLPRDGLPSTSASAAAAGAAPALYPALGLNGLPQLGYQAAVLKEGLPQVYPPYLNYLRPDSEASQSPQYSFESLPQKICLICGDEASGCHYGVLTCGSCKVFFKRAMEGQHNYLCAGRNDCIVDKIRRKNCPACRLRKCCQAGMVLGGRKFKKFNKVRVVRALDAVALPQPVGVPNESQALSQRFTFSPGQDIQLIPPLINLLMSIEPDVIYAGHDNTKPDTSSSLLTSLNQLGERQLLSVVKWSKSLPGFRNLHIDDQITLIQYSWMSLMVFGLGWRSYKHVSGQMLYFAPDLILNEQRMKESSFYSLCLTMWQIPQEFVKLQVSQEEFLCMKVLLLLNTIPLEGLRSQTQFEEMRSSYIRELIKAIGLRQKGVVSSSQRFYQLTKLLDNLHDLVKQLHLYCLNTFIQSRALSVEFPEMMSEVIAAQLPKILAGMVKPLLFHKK

hPR [2] = molecular target: T2, hPR (Homo sapiens, UniProt P06401); test: T47D alkaline phosphatase assay, antagonist mode; format: cell-based; conditions: T47D human breast cancer cells; for Emax: read-out: hPR Antagonists T47D Cells Eff. (%); for IC50: read-out: hPR Antagonists T47D Cells IC50
T2 sequence (P06401 679-933 limits assumed): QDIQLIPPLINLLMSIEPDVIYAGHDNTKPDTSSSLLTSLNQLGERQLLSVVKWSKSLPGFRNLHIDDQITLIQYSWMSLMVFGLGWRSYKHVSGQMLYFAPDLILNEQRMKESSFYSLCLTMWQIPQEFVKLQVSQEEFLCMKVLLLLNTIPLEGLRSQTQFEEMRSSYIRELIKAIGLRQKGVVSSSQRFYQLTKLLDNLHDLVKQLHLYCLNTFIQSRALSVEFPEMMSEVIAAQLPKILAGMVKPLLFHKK

hPR-A = molecular target: T3, hPR-A (Homo sapiens, UniProt P06401); test: Receptor competitive binding assay; conditions: read-out: PR binding Ki
T3 sequence (P06401 1-769 isoform P06401-2): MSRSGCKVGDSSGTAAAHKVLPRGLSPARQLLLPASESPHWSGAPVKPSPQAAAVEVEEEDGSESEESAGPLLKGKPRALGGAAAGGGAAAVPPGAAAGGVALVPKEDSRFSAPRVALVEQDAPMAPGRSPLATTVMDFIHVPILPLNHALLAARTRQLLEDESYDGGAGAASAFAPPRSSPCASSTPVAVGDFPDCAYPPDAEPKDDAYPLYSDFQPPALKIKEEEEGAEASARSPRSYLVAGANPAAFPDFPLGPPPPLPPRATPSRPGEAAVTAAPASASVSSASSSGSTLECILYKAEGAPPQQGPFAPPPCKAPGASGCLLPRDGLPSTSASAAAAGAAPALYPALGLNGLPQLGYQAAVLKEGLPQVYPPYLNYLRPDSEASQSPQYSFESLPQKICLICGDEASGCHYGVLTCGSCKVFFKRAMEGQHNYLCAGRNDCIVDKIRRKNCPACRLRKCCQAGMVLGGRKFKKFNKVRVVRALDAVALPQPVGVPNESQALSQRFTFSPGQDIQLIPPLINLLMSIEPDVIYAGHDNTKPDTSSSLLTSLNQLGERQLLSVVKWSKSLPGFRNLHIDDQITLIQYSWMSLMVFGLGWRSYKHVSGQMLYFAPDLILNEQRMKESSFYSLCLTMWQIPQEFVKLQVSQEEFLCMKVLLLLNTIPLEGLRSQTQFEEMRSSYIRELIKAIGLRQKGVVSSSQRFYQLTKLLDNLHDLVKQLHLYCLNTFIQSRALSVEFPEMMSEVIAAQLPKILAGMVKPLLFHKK

[3] = molecular target: T4, human estrogen receptor (hER) (Homo sapiens, UniProt P03372); test: hER cotransfection assay (potency ratio to hPR); format: cell-based; conditions: receptor-selectivity potency ratio, cotransfection assays
T4 sequence (P03372 1-595): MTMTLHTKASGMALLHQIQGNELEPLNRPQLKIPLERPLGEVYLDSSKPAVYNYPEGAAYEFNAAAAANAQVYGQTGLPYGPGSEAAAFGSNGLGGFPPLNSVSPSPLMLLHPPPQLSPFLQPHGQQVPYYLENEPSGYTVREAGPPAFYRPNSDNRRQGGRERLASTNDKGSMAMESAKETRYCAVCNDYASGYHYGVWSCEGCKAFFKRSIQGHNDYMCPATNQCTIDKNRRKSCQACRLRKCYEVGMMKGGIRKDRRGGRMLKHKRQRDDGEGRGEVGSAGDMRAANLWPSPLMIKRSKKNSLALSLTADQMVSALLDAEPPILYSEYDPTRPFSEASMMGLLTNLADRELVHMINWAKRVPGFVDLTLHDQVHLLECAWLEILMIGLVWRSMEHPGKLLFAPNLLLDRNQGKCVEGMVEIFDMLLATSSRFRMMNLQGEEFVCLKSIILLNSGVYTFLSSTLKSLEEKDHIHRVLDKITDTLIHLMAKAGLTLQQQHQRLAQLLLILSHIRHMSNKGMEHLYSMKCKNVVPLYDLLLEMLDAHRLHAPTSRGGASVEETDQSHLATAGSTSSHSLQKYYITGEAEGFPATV

[4] = CV-1 cells, read-out: hPR Agonist CV-1 Cells EC50
[5] = Tables 3 and 4, values without footnote, read-out: hPR agonist potencies (EC50 in nM) in the cotransfection assay

Row | SMILES | Emax (hPR [1]) [%] | EC50 (hPR [1]; [4]) [nM] | EC50 (hPR [1]; [5]) [nM] | Emax (hPR [2]) [%] | IC50 (hPR [2]) [nM] | Ki (hPR-A) [nM] | hER EC50 or IC50/hPR EC50 [3]
1 | CC1=CC(C)(C)Nc2ccc3c(c21)C(c1ccccc1)Oc1c(F)cc(F)cc1-3 (racemic) [Compound 33, (±)-7,9-difluoro-5-phenyl-1,2-dihydro-2,2,4-trimethyl-5H-chromeno[3,4-f]quinoline] | 85 | 3.5 | 3.5 | < 20 | > 10000 | 2.7 | >1000
2 | CC1=CC(C)(C)Nc2ccc3c(c21)C(c1cc2ccccc2s1)Oc1c(F)cc(F)cc1-3 (racemic) [Compound 63, (±)-7,9-difluoro-5-(benzo[b]thien-2-yl)-1,2-dihydro-2,2,4-trimethyl-5H-chromeno[3,4-f]quinoline] | 154 | 2.3 | – | 49 | 490 | 6.5 | 685
3 | CC1=CC(C)(C)Nc2ccc3c(c21)/C(=C/c1ccccc1)Oc1c(F)cc(F)cc1-3 [Compound 10, 7,9-difluoro-5(Z)-benzylidene-1,2-dihydro-2,2,4-trimethyl-5H-chromeno[3,4-f]quinoline] | 153 | 4.9 | 4.9 | 49 | 97 | 6.8 | >1000
4 | CC1=CC(C)(C)Nc2ccc3c(c21)/C(=C/c1ccncc1)Oc1c(F)cc(F)cc1-3 [Compound 14, 7,9-difluoro-5(Z)-(4-picolylidene)-1,2-dihydro-2,2,4-trimethyl-5H-chromeno[3,4-f]quinoline] | 103 | 7.4 | 7.4 | 44 | 116 | 6 | >1000
5 | CC1=CC(C)(C)Nc2ccc3c(c21)/C(=C/c1cccc(F)c1)Oc1c(F)cc(F)cc1-3 [Compound 15, 7,9-difluoro-5(Z)-(3-fluorobenzylidene)-1,2-dihydro-2,2,4-trimethyl-5H-chromeno[3,4-f]quinoline] | 191 | 3.8 | 3.8 | 52 | 711 | 9.7 | >1000

These reach a lower EC50 (hPR [1]; [4]). Values come first.

Row | Emax (hPR [1]) [%] | EC50 (hPR [1]; [4]) [nM] | EC50 (hPR [1]; [5]) [nM] | Emax (hPR [2]) [%] | IC50 (hPR [2]) [nM] | Ki (hPR-A) [nM] | hER EC50 or IC50/hPR EC50 [3] | SMILES
6 | 114 | 1.2 | 1.2 | 47 | 565 | 2.5 | >1000 | CC1=CC(C)(C)Nc2ccc3c(c21)C(c1cccc(C)c1)Oc1c(F)cc(F)cc1-3 (racemic) [Compound 34, (±)-7,9-difluoro-5-(3-methylphenyl)-1,2-dihydro-2,2,4-trimethyl-5H-chromeno[3,4-f]quinoline]
7 | 89 | 1.24 | 1.24 | 56 | 150 | 2.2 | >1000 | CC1=CC(C)(C)Nc2ccc3c(c21)C(c1ccc(Cl)c(C)c1)Oc1c(F)cc(F)cc1-3 (racemic) [Compound 37, (±)-7,9-difluoro-5-(4-chloro-3-methylphenyl)-1,2-dihydro-2,2,4-trimethyl-5H-chromeno[3,4-f]quinoline]
8 | 146 | 1.87 | 1.87 | 50 | 135 | 2.8 | >1000 | CC1=CC(C)(C)Nc2ccc3c(c21)C(c1cccc(Cl)c1)Oc1c(F)cc(F)cc1-3 (racemic) [Compound 41, (±)-7,9-difluoro-5-(3-chlorophenyl)-1,2-dihydro-2,2,4-trimethyl-5H-chromeno[3,4-f]quinoline]
9 | 89 | 0.7 | – | 40 | 53 | 3.5 | >1000 | CC#CC1Oc2c(F)cc(F)cc2-c2ccc3c(c21)C(C)=CC(C)(C)N3 (racemic) [Compound 74, (±)-7,9-difluoro-5-(1-propynyl)-1,2-dihydro-2,2,4-trimethyl-5H-chromeno[3,4-f]quinoline]
